Measured values taken from the SangsterLogP compilation.

Row | SMILES | logP
1 | CCCCCCCC(CCCCC)c1ccccc1 (stereo not drawn) | 8.56
2 | CCCCCCCCCC(CCCC)c1ccccc1 (stereo not drawn) | 9.16
3 | CCCCCCCC(CCC)c1ccccc1 (stereo not drawn) | 7.59
4 | CCCCCCCCCCC(CC)c1ccccc1 (stereo not drawn) | 8.65
5 | CCCCCCCCC(CCCC)c1ccccc1 (stereo not drawn) | 8.56
6 | CCCCCCC(CCC)c1ccccc1 (stereo not drawn) | 7
7 | CCCCCCCCCCC(C)c1ccccc1 (stereo not drawn) | 8.19
8 | CCCCCCCCCCCCCc1ccccc1 | 9.36
9 | CCCCCCCCCCCC(CC)c1ccccc1 (stereo not drawn) | 9.29
10 | CCCCCCCCCC(CC)c1ccccc1 (stereo not drawn) | 8.1
11 | CCCCCCCCC(CCCCC)c1ccccc1 (stereo not drawn) | 9.16
12 | CCCCCCCC(CCCC)c1ccccc1 (stereo not drawn) | 8.01
13 | CCCCCCCCCCCCC(C)c1ccccc1 (stereo not drawn) | 9.29
14 | CCCCCCCCCCC(CCC)c1ccccc1 (stereo not drawn) | 9.25
15 | CCCCCC(CCCCC)c1ccccc1 | 7.45
16 | CCCCCCC(CCCCC)c1ccccc1 (stereo not drawn) | 8.01
17 | CCCCCCCCC(C)c1ccccc1 (stereo not drawn) | 7.06
18 | CCCCCCCCCCCCc1ccccc1 | 8.65
19 | CCCCCC(CCCC)c1ccccc1 (stereo not drawn) | 6.9
20 | CCCCCCCCCCCC(C)c1ccccc1 (stereo not drawn) | 8.77
21 | CCCCCCC(CCCC)c1ccccc1 (stereo not drawn) | 7.45
22 | CCCCCCCCCCCc1ccccc1 | 8.14
23 | CCCCCCCCCC(C)c1ccccc1 (stereo not drawn) | 7.63
24 | CCCCCCCCCCCCCCc1ccccc1 | 9.95
25 | CCCCCCCCC(CCC)c1ccccc1 (stereo not drawn) | 8.07
26 | CCCCCCCCC(CC)c1ccccc1 (stereo not drawn) | 7.53
27 | CCCCCCCC(CC)c1ccccc1 (stereo not drawn) | 7
28 | CCCCCCCCCC(CCC)c1ccccc1 (stereo not drawn) | 8.62
